Reference: patent publication US20230027026A1, “FUSED PYRIMIDINE COMPOUNDS, COMPOSITIONS AND MEDICINAL APPLICATIONS THEREOF” (JUBILANT BIOSYS LIMITED, priority 2019, published 2023)
Where a name gives a salt, the structure may show the parent alone.

What was measured:
Type in all cases: cell-based
[1] = tested on: A431 cells; experiment: Cellular proliferation (Alamar Blue) assay, A431; conditions: Homo sapiens, A-431; A431 cells, 72 hr, Alamar Blue; read-out: A431 IC50
In short: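 Following a 16–18 h pre-incubation, cells received compound or DMSO for 72 h at 37 °C across a 10–0.0005 μM final range. Proliferation was then scored by Alamar Blue fluorescence (540 nm excitation, 590 nm emission) after 3 h.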

[2] = target: EGFR(D770_N771insSVD) expressing Ba/F3 stable cell line (Homo sapiens, UniProt P00533, DUP768-770, cells depend on it); experiment: Cellular proliferation (Alamar Blue) assay, EGFR D770_N771insSVD Ba/F3; conditions: EGFR D770_N771insSVD Ba/F3, 72 hr, read-out: D770 IC50
Sequence of EGFR(D770_N771insSVD) expressing Ba/F3 stable cell line (P00533 with tags, fused parts or gaps DUP768-770): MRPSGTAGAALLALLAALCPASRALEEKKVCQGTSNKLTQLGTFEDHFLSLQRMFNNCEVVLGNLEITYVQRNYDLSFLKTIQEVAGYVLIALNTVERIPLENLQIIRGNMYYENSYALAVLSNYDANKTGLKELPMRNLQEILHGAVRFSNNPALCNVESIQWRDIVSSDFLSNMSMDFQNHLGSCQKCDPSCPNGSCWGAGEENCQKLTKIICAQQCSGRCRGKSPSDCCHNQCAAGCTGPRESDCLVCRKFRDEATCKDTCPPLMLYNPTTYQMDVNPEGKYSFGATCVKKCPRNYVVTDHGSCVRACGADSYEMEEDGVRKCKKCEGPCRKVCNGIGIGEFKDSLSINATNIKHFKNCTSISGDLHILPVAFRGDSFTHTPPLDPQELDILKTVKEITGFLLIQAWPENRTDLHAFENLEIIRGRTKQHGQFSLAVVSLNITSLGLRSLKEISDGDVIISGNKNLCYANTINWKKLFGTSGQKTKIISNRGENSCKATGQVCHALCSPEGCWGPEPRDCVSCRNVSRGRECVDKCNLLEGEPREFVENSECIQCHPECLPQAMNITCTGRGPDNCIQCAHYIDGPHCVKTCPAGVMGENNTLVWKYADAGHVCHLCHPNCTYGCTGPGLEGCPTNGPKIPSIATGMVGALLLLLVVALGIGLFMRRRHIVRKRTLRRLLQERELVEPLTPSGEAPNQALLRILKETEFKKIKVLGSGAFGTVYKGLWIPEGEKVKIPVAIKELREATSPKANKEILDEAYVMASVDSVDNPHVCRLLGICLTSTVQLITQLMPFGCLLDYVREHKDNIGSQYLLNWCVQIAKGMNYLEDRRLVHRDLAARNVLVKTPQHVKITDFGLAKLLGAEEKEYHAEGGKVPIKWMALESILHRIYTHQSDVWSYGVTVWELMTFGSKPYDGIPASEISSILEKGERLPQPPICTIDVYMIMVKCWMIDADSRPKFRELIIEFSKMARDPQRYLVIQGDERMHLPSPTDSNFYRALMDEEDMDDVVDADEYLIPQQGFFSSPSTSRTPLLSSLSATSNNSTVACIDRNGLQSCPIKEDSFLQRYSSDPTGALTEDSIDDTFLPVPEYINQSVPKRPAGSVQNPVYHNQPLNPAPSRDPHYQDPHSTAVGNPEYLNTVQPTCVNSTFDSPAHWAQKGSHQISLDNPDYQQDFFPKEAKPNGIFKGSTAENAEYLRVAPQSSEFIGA
In short: (§1)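 Plate cells (Ba/F3: 15,000/well, RPMI/10% FBS), 16–18 h, 37 °C. Add cpd, 3-fold dilutions, 10–0.0005 μM final, DMSO ctrl; 72 h. Alamar Blue 3 h; read Ex540/Em590.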

[3] = target: EGFR (A767_dupASV) expressing Ba/F3 stable cell line (Homo sapiens, UniProt P00533, DUP767-769, cells depend on it); experiment: Cellular proliferation (Alamar Blue) assay, EGFR A767_dupASV Ba/F3; conditions: EGFR A767_dupASV Ba/F3, 72 hr, read-out: A767 IC50
Sequence of EGFR (A767_dupASV) expressing Ba/F3 stable cell line (P00533 with tags, fused parts or gaps DUP767-769): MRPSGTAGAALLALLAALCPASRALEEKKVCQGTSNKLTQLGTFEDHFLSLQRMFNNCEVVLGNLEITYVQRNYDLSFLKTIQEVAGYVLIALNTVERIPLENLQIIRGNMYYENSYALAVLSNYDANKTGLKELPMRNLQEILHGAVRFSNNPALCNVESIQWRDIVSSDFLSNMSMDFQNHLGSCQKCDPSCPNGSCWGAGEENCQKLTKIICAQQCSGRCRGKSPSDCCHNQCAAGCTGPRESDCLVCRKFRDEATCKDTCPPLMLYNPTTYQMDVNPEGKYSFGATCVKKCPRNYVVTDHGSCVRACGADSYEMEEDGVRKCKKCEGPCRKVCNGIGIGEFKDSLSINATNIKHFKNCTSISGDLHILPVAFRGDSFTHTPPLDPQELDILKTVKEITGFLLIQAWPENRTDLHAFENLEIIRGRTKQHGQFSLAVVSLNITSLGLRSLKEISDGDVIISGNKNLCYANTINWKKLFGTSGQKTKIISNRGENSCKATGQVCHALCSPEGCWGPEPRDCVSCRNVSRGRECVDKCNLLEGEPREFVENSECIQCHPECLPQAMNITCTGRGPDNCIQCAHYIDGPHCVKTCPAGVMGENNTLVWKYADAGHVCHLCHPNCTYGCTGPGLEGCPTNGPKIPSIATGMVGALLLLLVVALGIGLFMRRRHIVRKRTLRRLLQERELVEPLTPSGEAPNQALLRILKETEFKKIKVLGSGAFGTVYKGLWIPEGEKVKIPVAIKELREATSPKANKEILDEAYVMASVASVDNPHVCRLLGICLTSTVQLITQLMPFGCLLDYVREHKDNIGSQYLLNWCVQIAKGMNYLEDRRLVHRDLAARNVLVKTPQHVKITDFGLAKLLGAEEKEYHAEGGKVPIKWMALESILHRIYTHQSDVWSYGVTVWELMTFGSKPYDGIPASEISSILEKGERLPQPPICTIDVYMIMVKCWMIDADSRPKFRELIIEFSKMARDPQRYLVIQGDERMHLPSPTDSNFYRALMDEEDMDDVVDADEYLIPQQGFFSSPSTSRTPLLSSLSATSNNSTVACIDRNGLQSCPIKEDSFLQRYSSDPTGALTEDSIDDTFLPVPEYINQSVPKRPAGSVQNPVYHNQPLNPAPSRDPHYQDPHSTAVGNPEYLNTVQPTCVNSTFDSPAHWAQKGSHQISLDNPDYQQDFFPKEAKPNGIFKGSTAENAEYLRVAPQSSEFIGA
In short: as §1

[4] = target: HER2 (A775_G776insYVMA) expressing Ba/F3 stable cell line (Homo sapiens, UniProt P04626, DUP772-775, cells depend on it); experiment: Cellular proliferation (Alamar Blue) assay, HER2 YVMA Ba/F3; conditions: HER2 A775_G776insYVMA Ba/F3, 72 hr, read-out: YVMA IC50
Sequence of HER2 (A775_G776insYVMA) expressing Ba/F3 stable cell line (P04626 with tags, fused parts or gaps DUP772-775): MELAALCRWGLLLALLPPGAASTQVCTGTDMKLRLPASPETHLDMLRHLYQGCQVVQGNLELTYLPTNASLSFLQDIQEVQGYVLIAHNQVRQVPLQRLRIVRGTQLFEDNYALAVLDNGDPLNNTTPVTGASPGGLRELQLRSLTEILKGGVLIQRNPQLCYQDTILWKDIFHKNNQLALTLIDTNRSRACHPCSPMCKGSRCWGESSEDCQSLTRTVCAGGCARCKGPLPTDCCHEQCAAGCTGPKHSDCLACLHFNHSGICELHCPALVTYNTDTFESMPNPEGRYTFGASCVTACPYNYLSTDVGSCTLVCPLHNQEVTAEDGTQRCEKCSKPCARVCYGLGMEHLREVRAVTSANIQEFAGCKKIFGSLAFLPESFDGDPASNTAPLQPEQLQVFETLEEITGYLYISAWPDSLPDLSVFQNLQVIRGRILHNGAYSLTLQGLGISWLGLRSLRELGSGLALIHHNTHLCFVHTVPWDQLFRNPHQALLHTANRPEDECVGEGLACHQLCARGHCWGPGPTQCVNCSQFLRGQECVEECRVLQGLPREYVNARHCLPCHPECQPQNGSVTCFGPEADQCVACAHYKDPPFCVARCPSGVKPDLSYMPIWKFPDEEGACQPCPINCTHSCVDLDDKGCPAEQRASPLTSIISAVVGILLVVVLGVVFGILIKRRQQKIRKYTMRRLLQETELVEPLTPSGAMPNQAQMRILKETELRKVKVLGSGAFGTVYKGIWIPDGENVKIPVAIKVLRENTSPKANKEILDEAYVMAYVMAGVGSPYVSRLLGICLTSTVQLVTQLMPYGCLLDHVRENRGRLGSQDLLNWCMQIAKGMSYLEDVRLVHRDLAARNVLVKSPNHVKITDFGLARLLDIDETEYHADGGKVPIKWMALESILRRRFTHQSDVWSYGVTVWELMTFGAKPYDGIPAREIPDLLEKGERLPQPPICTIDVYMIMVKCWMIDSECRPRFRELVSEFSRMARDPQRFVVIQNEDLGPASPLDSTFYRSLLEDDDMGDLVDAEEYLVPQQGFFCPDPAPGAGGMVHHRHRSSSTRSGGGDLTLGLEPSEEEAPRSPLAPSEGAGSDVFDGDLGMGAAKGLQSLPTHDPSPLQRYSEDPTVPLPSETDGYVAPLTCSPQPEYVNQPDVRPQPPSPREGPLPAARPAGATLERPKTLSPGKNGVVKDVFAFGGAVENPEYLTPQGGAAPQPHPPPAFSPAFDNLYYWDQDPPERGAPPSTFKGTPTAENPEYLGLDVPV
Procedure: Example 3: Cellular Proliferation (Alamar Blue) Assays
• 1. EGFR(D770_N771insSVD) expressing Ba/F3 stable cell line • 2. EGFR (A767_dupASV) expressing Ba/F3 stable cell line • 3. A431 cells • 4. BTER2 (A775_G776insYVMA) expressing Ba/F3 stable cell line • 5. BTER2 (WT) expressing Ba/F3 stable cell line • 6. BT-474 cells
• 1. Seed cells at 5000 for A431 and 15,000 cells for Ba/F3 in 100 μL/well in complete media (for A431: DMEM with 10% FBS and for Ba/F3 cells: RPMI with 10% FBS) in 96-well tissue culture plate. Leave outer wells without cells for background measurements. Incubate at 37 degree Celsius in 5% CO2 humidified incubator for 16-18 hours. • 2. Add 0.025 ml of 5× concentration compound dilution or DMSO control. Final compound concentration range is 10-0.0005 μM prepared in 3-fold serial dilutions. Incubate for 72 hr at 37 degree Celsius in […] humidified incubator. • 3. Add 0.0125 mL Alamar Blue™ reagent to each well with multi-channel pipette and tap gently on each side of the plate to mix. Incubate for 3 hours at 37 degree Celsius in […] humidified incubator. • 4. Read plates on fluorescence reader (Tecan Spark Control, Device: Spark, Serial #: 1801006040) at 540 nm excitation, 590 nm emission wavelength. • 5. Data analysis was performed using XLfit 5.5.0.5.

SMILES | IC50 [1] [nM] | GI50 [2] [nM] | GI50 [3] [nM] | GI50 [4] [nM]
CN(C)C/C=C/C(=O)Nc1cccc(N2C(=O)N(c3ccccc3)Cc3cnc(Nc4cn(C5CCN(C)CC5)nc4Cl)nc32)c1 [Compound 106, (E)-N-(3-(7-((3-chloro-1-(1-methylpiperidin-4-yl)-1H-pyrazol-4-yl)amino)-2-oxo-3-phenyl-3,4-dihydropyrimido[4,5-d]pyrimidin-1(2H)-yl)phenyl)-4-(dimethylamino)but-2-enamide] | 8930 | 1110 | 926 | 995
CN(C)C/C=C/C(=O)Nc1cccc(N2C(=O)N(c3ccccc3)Cc3cnc(Nc4cnn(C5CCC(O)CC5)c4)nc32)c1 (stereo not drawn) [Compound 107, (E)-4-(dimethylamino)-N-(3-(7-((1-(4-hydroxycyclohexyl)-1H-pyrazol-4-yl)amino)-2-oxo-3-phenyl-3,4-dihydropyrimido[4,5-d]pyrimidin-1(2H)-yl)phenyl)but-2-enamide] | ≥ 10000 | ≥ 10000 | ≥ 10000 | ≥ 10000
C=CC(=O)Nc1cccc(N2C(=O)N(c3ccccc3)Cc3cnc(Nc4cnn(C5CCC(O)CC5)c4)nc32)c1 (stereo not drawn) [Compound 108, N-(3-(7-((1-(4-hydroxycyclohexyl)-1H-pyrazol-4-yl)amino)-2-oxo-3-phenyl-3,4-dihydropyrimido[4,5-d]pyrimidin-1(2H)-yl)phenyl)acrylamide] | ≥ 10000 | 634 | 912 | 2020
CN(C)C/C=C/C(=O)Nc1cccc(N2C(=O)N(c3ccccc3)Cc3cnc(Nc4ccc(N5CCN(C)CC5)nc4)nc32)c1 [Compound 109, (E)-4-(dimethylamino)-N-(3-(7-((6-(4-methylpiperazin-1-yl)pyridin-3-yl)amino)-2-oxo-3-phenyl-3,4-dihydropyrimido[4,5-d]pyrimidin-1(2H)-yl)phenyl)but-2-enamide] | ≥ 10000 | 6030 | 2320 | 3300
C=CC(=O)Nc1cccc(N2C(=O)N(c3ccccc3)Cc3cnc(Nc4ccc(N5CCN(C)CC5)nc4)nc32)c1 [Compound 110, N-(3-(7-((6-(4-methylpiperazin-1-yl)pyridin-3-yl)amino)-2-oxo-3-phenyl-3,4-dihydropyrimido[4,5-d]pyrimidin-1(2H)-yl)phenyl)acrylamide] | 3640 | 102 | 43 | 103
Cn1cc(Nc2ncc3c(n2)N(c2cccc(NC(=O)/C=C/CN4CCCCC4)c2)C(=O)N(c2ccccc2)C3)c(Cl)n1 [Compound 111, (E)-N-(3-(7-((3-chloro-1-methyl-1H-pyrazol-4-yl)amino)-2-oxo-3-phenyl-3,4-dihydropyrimido[4,5-d]pyrimidin-1(2H)-yl)phenyl)-4-(piperidin-1-yl)but-2-enamide] | ≥ 10000 | 128 | 39 | 64
C=CC(=O)Nc1cccc(N2C(=O)N(c3ccccc3)Cc3cnc(Nc4ccc(N5CCC(N(C)C)CC5)nc4)nc32)c1 [Compound 112, N-(3-(7-((6-(4-(dimethylamino)piperidin-1-yl)pyridin-3-yl)amino)-2-oxo-3-phenyl-3,4-dihydropyrimido[4,5-d]pyrimidin-1(2H)-yl)phenyl)acrylamide] | ≥ 10000 | 295 | 229 | 354
C=CC(=O)Nc1cccc(N2C(=O)N(c3ccccc3)Cc3cnc(Nc4cn(C)nc4F)nc32)c1 [Compound 113, N-(3-(7-((3-fluoro-1-methyl-1H-pyrazol-4-yl)amino)-2-oxo-3-phenyl-3,4-dihydropyrimido[4,5-d]pyrimidin-1(2H)-yl)phenyl)acrylamide] | ≥ 10000 | 17 | 4 | 68
CN(C)C/C=C/C(=O)Nc1cccc(N2C(=O)N(c3ccccc3)Cc3cnc(Nc4cccnc4F)nc32)c1 [Compound 114, (E)-4-(dimethylamino)-N-(3-(7-((2-fluoropyridin-3-yl)amino)-2-oxo-3-phenyl-3,4-dihydropyrimido[4,5-d]pyrimidin-1(2H)-yl)phenyl)but-2-enamide] | ≥ 10000 | 1090 | 164 | 1150
C=CC(=O)Nc1cccc(N2C(=O)N(c3ccccc3)Cc3cnc(Nc4cccnc4F)nc32)c1 [Compound 115, N-(3-(7-((2-fluoropyridin-3-yl)amino)-2-oxo-3-phenyl-3,4-dihydropyrimido[4,5-d]pyrimidin-1(2H)-yl)phenyl)acrylamide] | ≥ 10000 | 28 | 8 | 188
C=CC(=O)Nc1cccc(N2C(=O)N(c3ccccc3)Cc3cnc(Nc4cn(C)nc4Cl)nc32)c1 [Compound 116, N-(3-(7-((3-chloro-1-methyl-1H-pyrazol-4-yl)amino)-2-oxo-3-phenyl-3,4-dihydropyrimido[4,5-d]pyrimidin-1(2H)-yl)phenyl)acrylamide] | ≥ 10000 | 7 | 1 | 24
Cn1cc(Nc2ncc3c(n2)N(c2cccc(NC(=O)/C=C/CF)c2)C(=O)N(c2ccccc2)C3)c(Cl)n1 [Compound 117, (E)-N-(3-(7-((3-chloro-1-methyl-1H-pyrazol-4-yl)amino)-2-oxo-3-phenyl-3,4-dihydropyrimido[4,5-d]pyrimidin-1(2H)-yl)phenyl)-4-fluorobut-2-enamide] | ≥ 10000 | 50 | 35 | 75
C=CC(=O)Nc1cccc(N2C(=O)N(c3ccccc3)Cc3cnc(Nc4cccc5c4CCN5C4CCN(C)CC4)nc32)c1 [Compound 118, N-(3-(7-((1-(1-methylpiperidin-4-yl)indolin-4-yl)amino)-2-oxo-3-phenyl-3,4-dihydropyrimido[4,5-d]pyrimidin-1(2H)-yl)phenyl)acrylamide] | ≥ 10000 | 110 | 32 | 103
COC/C=C/C(=O)Nc1cccc(N2C(=O)N(c3ccccc3)Cc3cnc(Nc4cn(C)nc4Cl)nc32)c1 [Compound 119, (E)-N-(3-(7-((3-chloro-1-methyl-1H-pyrazol-4-yl)amino)-2-oxo-3-phenyl-3,4-dihydropyrimido[4,5-d]pyrimidin-1(2H)-yl)phenyl)-4-methoxybut-2-enamide] | ≥ 10000 | 140 | 98 | 144
C/C=C/C(=O)Nc1cccc(N2C(=O)N(c3ccccc3)Cc3cnc(Nc4cn(C)nc4Cl)nc32)c1 [Compound 120, (E)-N-(3-(7-((3-chloro-1-methyl-1H-pyrazol-4-yl)amino)-2-oxo-3-phenyl-3,4-dihydropyrimido[4,5-d]pyrimidin-1(2H)-yl)phenyl)but-2-enamide] | ≥ 10000 | 183 | 107 | 158
C=C(C)C(=O)Nc1cccc(N2C(=O)N(c3ccccc3)Cc3cnc(Nc4cn(C)nc4Cl)nc32)c1 [Compound 121, N-(3-(7-((3-chloro-1-methyl-1H-pyrazol-4-yl)amino)-2-oxo-3-phenyl-3,4-dihydropyrimido[4,5-d]pyrimidin-1(2H)-yl)phenyl)methacrylamide] | ≥ 10000 | ≥ 10000 | 8600 | 883
Cn1cc(Nc2ncc3c(n2)N(c2cccc(NC(=O)/C=C/CN4CCOCC4)c2)C(=O)N(c2ccccc2)C3)c(Cl)n1 [Compound 122, (E)-N-(3-(7-((3-chloro-1-methyl-1H-pyrazol-4-yl)amino)-2-oxo-3-phenyl-3,4-dihydropyrimido[4,5-d]pyrimidin-1(2H)-yl)phenyl)-4-morpholinobut-2-enamide] | ≥ 10000 | 284 | 101 | 132
C=CC(=O)Nc1cccc(N2C(=O)N(c3ccccc3)Cc3cnc(Nc4cn(C(C)(C)C#N)nc4Cl)nc32)c1 [Compound 123, N-(3-(7-((3-chloro-1-(2-cyanopropan-2-yl)-1H-pyrazol-4-yl)amino)-2-oxo-3-phenyl-3,4-dihydropyrimido[4,5-d]pyrimidin-1(2H)-yl)phenyl)acrylamide trifluoroacetate salt] | ≥ 10000 | 300 | 176 | 319
